This note sets out measurements from patent publication US5719291A, “Cyclohexane derivatives” (Hoffmann-La Roche Inc., priority 1991, dated 1998).

The subject of one data set is Aspergillus fumigatus. As to the kind of experiment: In vitro antifungal activity, MIC (Method A). The class given is cell-based. As to conditions: 3 days, 27° C.; for MIC: Aspergillus fumigatus, 72 h; for Antifungal activity MIC: 1×10^5 cells/ml, pH 7.0. As to the method:
(§1) The in vitro antifungal activities of representative compounds of the present invention were measured by determining the minimal inhibitory concentration (MIC), which is the concentration of an antifungal at which no fungal growth can be observed.
(§2) The MICs were determined by the microbroth dilution procedure according to NCCLS with the following minor modifications (Galgiani et al., Antimicrob. Agents Chemother., 33, 731 (1989). The medium was solidified with 0.2% low melting point agarose and buffered to pH 7.0 with 0.25%: K2 HPO4 in Yeast Nitrogen Base (Difco Lab.). Inoculum size was 1×10^5 cells/ml, and incubation was carried out for 3 days at 27° C. The MICs ([…]) are shown in Table 1. The reference compound is compound (IA) in U.S. Pat. No. 4,952,604. The compounds used are identified by reference to the Examples in which they were prepared.
(§3) The in vitro antifungal activities of the representative compounds of the present invention shown in Table 1 and Table 2 were measured by determining the minimal inhibitory concentrations (MIC: Method A) or 80% growth inhibition concentration (IC80 : Method B) respectively. MIC is defined as the concentration of an antifungal at which growth of fungi is not observed and IC80 is the concentration where cell turbidity measured at OD630 is reduced by 80%.
(§4) Antifungal activities were determined by either method A or B (see below) using microtest plates according NCCLS with minor modifications (Galgiani et at., Antimicrob. Agents Chemother. 33, 731 (1989)).
(§5) (Method A) The medium was solidified with 0.2% low melting point agarose and buffered to pH 7.0 with 0.25% K2 HPO4 in Yeast Nitrogen Base (Difco Lab.). Inoculum size was 1×10^5 cells/ml, and incubation was carried out for 3 days at 27° C. The reference compound is compound (IA) in U.S. Pat. No. 4,952,604.

For data set [1], the system named is Candida albicans. Nature of the data set: In vitro antifungal activity, MIC (Method A). The class given is cell-based. As to conditions: 3 days, 27° C.; for MIC: Candida albicans, 72 h; for Antifungal activity MIC: 1×10^5 cells/ml, pH 7.0. As to the method:
as §1, §2, §3, §4, §5

Another data set relates to Cryptococcus neoformans. Nature of the data set: In vitro antifungal activity, MIC (Method A). It is filed as cell-based. To be noted: 3 days, 27° C.; for MIC: Cryptococcus neoformans, 72 h; for Antifungal activity MIC: 1×10^5 cells/ml, pH 7.0. As to the method:
as §1, §2, §3, §4, §5

Data set [2] is described as follows: Acute toxicity (LD50) by oral administration in mice. The class given is in vivo.
A further data set concerns A. fumigatus. Nature of the data set: In vitro antifungal activity, IC80 (Method B). The class given is cell-based. As to conditions: Aspergillus fumigatus, read-out: Antifungal activity IC80. On the procedure: as §3, §4
(§6) (Method B) The medium for yeast was buffered to pH 7.0 with 0.25% K2 HPO4 in Yeast Nitrogen Base (Difco Lab.). For the filamentous fungi, 0.2% of low melting point agar was supplemented to the above medium. Inoculum size was 1×10^4 cells/ml, and incubation was carried out for 1-2 days at 27° C. Fluconazole (Pfizer) was used as reference.

A further data set has as its system C. neoformans. Nature of the data set: In vitro antifungal activity, IC80 (Method B). It is filed as cell-based. As to conditions: Cryptococcus neoformans. On the procedure: as §3, §4, §6
In data set [3] the test system is Candida albicans. Nature of the data set: In vitro antifungal activity, IC80 (Method B). It is filed as cell-based. As to the method: as §3, §4, §6
Where [4] appears, read: A. fumigatus CF1003, 1×10^4 cells/ml, 1-2 days, 27° C., 0.2% agar.
[5] abbreviates: A. fumigatus CF1004, 1×10^4 cells/ml, 1-2 days, 27° C., 0.2% agar.
Setting [6] is: pH 7, C. neoformans CY1057, 1×10^4 cells/ml, 1-2 days, 27° C., read-out: Antifungal activity IC80.
[7] abbreviates: pH 7, C. neoformans CY1059, 1×10^4 cells/ml, 1-2 days, 27° C., read-out: Antifungal activity IC80.
Setting [8] is: pH 7, Candida albicans CY1002, 1×10^4 cells/ml, 1-2 days, 27° C., read-out: Antifungal activity IC80.
The mark [9] stands for this setting: pH 7, Candida albicans CY1005, 1×10^4 cells/ml, 1-2 days, 27° C., read-out: Antifungal activity IC80.
Setting [10] is: pH 7, Candida albicans CY3003, 1×10^4 cells/ml, 1-2 days, 27° C., read-out: Antifungal activity IC80.

≈ marks a conversion by molar mass, not a printed value. Counter-ions that a name gives are not always drawn. Like-named read-outs stand apart in the source and are kept apart here.

For orientation: MIC means the lowest concentration found to suppress growth. What is called LD50 is the dose expected to kill half of the subjects tested.

As to `CCCCCCC/C=C/[C@@H]1OC[C@H](C)[C@H](OC)[C@H]1OC(=O)CN` [Example 4, (2S,3R,4S,5S)-4-methoxy-5-methyl-2-[(E)-1-nonenyl]-tetrahydro-2H-pyran-3-ylglycinate trifluoroacetic acid salt], the minimum inhibitory concentration (MIC) in the data set on Aspergillus fumigatus (pH 7, Aspergillus fumigatus CF1003, 1×10^5 cells/ml) is 3.13 mg/L; in the data set on Aspergillus fumigatus (pH 7, Aspergillus fumigatus CF1004, 1×10^5 cells/ml), 3.13 mg/L; in the data set with Aspergillus fumigatus (pH 7, Aspergillus fumigatus CF1023, 1×10^5 cells/ml), 1.56 mg/L; in the data set with Candida albicans [1] (pH 7, Candida albicans CY1002, 1×10^5 cells/ml), 100 mg/L; in the data set on Candida albicans [1] (pH 7, Candida albicans CY1005, 1×10^5 cells/ml), 50 mg/L; in the data set with Candida albicans [1] (pH 7, Candida albicans CY3003, 1×10^5 cells/ml), 50 mg/L. The MIC with Cryptococcus neoformans (pH 7, Cryptococcus neoformans CY1057, 1×10^5 cells/ml) stood at 3.13 mg/L; with Cryptococcus neoformans (pH 7, Cryptococcus neoformans CY1059, 1×10^5 cells/ml), 6.25 mg/L; in the data set on Cryptococcus neoformans (pH 7, Cryptococcus neoformans CY1061, 1×10^5 cells/ml) it was 12.5 mg/L. The LD50 in data set [2] (mouse, in vivo, read-out: LD50) is > 500 mg/kg.

As to `CCCCCCC/C=C/[C@@H]1OC[C@H](C)C=C1Cn1ccnc1` [Example 60, 1-[[(2S,5R)-5,6-dihydro-5-methyl-2-[(E)-1-nonenyl]-2H-pyran-3-yl]methyl]-1H-imidazole], the LD50 in data set [2] (mouse, in vivo, read-out: LD50) was > 500 mg/kg.

As for `CCCCCCCCO[C@@H]1CCC(C)(C)[C@H](OC)[C@@H]1Cn1cncn1` [Example 69, 1-[[(1R,2R,6R)-2-methoxy-3,3-dimethyl-6-octyloxycyclohexyl]methyl]-1H-1,2,4-triazole], in data set [2] (mouse, in vivo, read-out: LD50), the LD50 is > 500 mg/kg.

For `CCc1ccc(CC[C@@H]2CCC(C)(C)[C@H](OC)[C@H]2Cn2cncn2)cc1` [Example 81, 1-[[(1R,2R,6R)-6-(4-ethylphenyl)ethyl-2-methoxy-3,3-dimethyl-cyclohexyl]methyl]-1H-1,2,4-triazole], the IC80 in the data set on A. fumigatus (setting [4]) is > 200 mg/L; in the data set on A. fumigatus (setting [5]) it was > 200 mg/L; with C. neoformans (setting [6]), 1.5 mg/L (≈ 4.22 µM); in the data set with C. neoformans (setting [7]), 1.5 mg/L (≈ 4.22 µM); with Candida albicans [3] (setting [8]), 0.0075 mg/L (≈ 0.0211 µM); in the data set on Candida albicans [3] (setting [9]), 0.025 mg/L (≈ 0.0703 µM). The IC80 with Candida albicans [3] (setting [10]) was found to be 0.0042 mg/L (≈ 0.0118 µM).

Regarding `CO[C@@H]1[C@@H](Cn2cncn2)[C@H](CCc2ccc(N3CCCC3)cc2)CCC1(C)C` [Example 82, 1-[[(1R,2R,6R)-2-methoxy-3,3-dimethyl-6-[2-(p-pyrrolidinophenyl)ethyl]cyclohexyl]methyl]-1H,1,2,4-triazole], the IC80 in the data set with A. fumigatus (setting [4]) was > 200 mg/L; with A. fumigatus (setting [5]), > 200 mg/L; in the data set with C. neoformans (setting [6]), > 200 mg/L; in the data set with C. neoformans (setting [7]), > 200 mg/L; in the data set on Candida albicans [3] (setting [8]) it was 0.15 mg/L (≈ 0.378 µM); in the data set on Candida albicans [3] (setting [9]) it was 0.35 mg/L (≈ 0.883 µM). Also, the IC80 in the data set with Candida albicans [3] (setting [10]) amounted to 0.17 mg/L (≈ 0.429 µM).

With `CCc1ccc(OC[C@@H]2CCC(C)(C)[C@H](OC)[C@H]2Cn2cncn2)cc1` [Example 83, 1-[[(1R,2R,6R)-2-methoxy-3,3-dimethyl-6-(4-ethylphenoxy)methyl]methyl]-1H,1,2,4-triazole], the IC80 in the data set with A. fumigatus (setting [4]) is > 200 mg/L; with A. fumigatus (setting [5]) it was > 200 mg/L; with C. neoformans (setting [6]), 0.21 mg/L (≈ 0.587 µM); in the data set on C. neoformans (setting [7]), 0.19 mg/L (≈ 0.531 µM); in the data set with Candida albicans [3] (setting [8]) it was 0.31 mg/L (≈ 0.867 µM); with Candida albicans [3] (setting [9]) it was 0.24 mg/L (≈ 0.671 µM). The IC80 in the data set with Candida albicans [3] (setting [10]) was found to be 0.59 mg/L (≈ 1.65 µM).

In the case of `OC(Cn1cncn1)(Cn1cncn1)c1ccc(F)cc1F` [FCZ, Fluconazole, reference compound], the IC80 in the data set with A. fumigatus stood at 150 mg/L (≈ 490 µM); in the data set on C. neoformans (pH 7, read-out: Antifungal activity IC80, C. neoformans CY1057, 1×10^4 cells/ml, 1-2 days, 27° C.) it was 5.2 mg/L (≈ 17 µM); in the data set with C. neoformans (pH 7, read-out: Antifungal activity IC80, C. neoformans CY1059, 1×10^4 cells/ml, 1-2 days, 27° C.), 8.6 mg/L (≈ 28.1 µM); in the data set on Candida albicans [3] (pH 7, read-out: Antifungal activity IC80, Candida albicans CY1002, 1×10^4 cells/ml, 1-2 days, 27° C.), 1.1 mg/L (≈ 3.59 µM); with Candida albicans [3] (pH 7, read-out: Antifungal activity IC80, Candida albicans CY1005, 1×10^4 cells/ml, 1-2 days, 27° C.) it was 1.2 mg/L (≈ 3.92 µM); in the data set on Candida albicans [3] (pH 7, read-out: Antifungal activity IC80, Candida albicans CY3003, 1×10^4 cells/ml, 1-2 days, 27° C.) it was 1 mg/L (≈ 3.27 µM).

Regarding “(2S,3R,4S,5S)-5-methyl-2-[(E)-1-nonenyl]-4-propoxy-tetrahydro-2H-pyran-3-ylglycinate trifluoroacetic acid salt [Example 21]”, the “Antifungal activity MIC” value with Aspergillus fumigatus (Aspergillus fumigatus CF1003) came to 12.5 mg/L; with Aspergillus fumigatus (Aspergillus fumigatus CF1004), 6.25 mg/L; with Aspergillus fumigatus (Aspergillus fumigatus CF1023), 12.5 mg/L; with Candida albicans [1] (Candida albicans CY1002), 100 mg/L; in the data set with Candida albicans [1] (Candida albicans CY1005) it was 50 mg/L; in the data set on Candida albicans [1] (Candida albicans CY3003), 100 mg/L. Further, the “Antifungal activity MIC” value is 12.5 mg/L in the data set on Cryptococcus neoformans (Cryptococcus neoformans CY1057), 12.5 mg/L in the data set with Cryptococcus neoformans (Cryptococcus neoformans CY1059) and 25 mg/L in the data set on Cryptococcus neoformans (Cryptococcus neoformans CY1061). Besides, the LD50 entry in data set [2] is given as “more than 500 mg/kg”.
